Experimental findings from patent publication US12552826B2, “PRMT5 inhibitors” (Merck Sharp & Dohme LLC, priority 2018, dated 2026) are described below.

Bounds are passed on as bounds.

The target of this experiment is T1, PRMT5 (Homo sapiens, UniProt O14744).
T1 construct: endogenous in cells; host or cells: MCF-7
T1 sequence (O14744 whole entry): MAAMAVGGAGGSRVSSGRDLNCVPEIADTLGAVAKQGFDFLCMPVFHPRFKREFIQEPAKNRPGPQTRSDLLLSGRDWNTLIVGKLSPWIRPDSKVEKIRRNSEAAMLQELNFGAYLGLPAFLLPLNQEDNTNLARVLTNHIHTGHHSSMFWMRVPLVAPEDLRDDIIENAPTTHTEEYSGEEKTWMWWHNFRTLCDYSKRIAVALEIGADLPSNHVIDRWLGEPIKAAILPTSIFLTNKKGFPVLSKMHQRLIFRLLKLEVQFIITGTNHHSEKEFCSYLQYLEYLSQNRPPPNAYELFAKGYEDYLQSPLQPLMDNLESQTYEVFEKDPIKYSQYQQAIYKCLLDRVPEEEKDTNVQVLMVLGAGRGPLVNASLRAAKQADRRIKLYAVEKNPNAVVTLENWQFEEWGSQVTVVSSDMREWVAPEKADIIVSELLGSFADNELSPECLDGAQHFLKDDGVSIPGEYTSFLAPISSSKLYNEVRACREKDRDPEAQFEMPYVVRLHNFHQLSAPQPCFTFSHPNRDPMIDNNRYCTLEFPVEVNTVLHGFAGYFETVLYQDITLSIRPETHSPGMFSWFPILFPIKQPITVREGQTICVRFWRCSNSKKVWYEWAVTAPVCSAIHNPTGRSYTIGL
T1 sequence (Q9BQA1 whole entry partner): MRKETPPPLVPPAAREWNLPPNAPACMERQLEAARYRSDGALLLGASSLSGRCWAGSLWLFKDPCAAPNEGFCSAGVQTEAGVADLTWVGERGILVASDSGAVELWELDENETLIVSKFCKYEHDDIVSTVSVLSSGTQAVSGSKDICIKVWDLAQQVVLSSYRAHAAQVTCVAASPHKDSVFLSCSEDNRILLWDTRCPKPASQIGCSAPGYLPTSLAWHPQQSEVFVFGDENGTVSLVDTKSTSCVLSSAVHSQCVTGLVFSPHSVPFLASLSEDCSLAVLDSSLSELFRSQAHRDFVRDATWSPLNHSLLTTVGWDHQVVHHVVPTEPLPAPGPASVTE
As to the kind of experiment: PRMT5 Cell Target Engagement (TE) Assay. In kind it is cell-based. The following applies: MCF-7 cells, 3 days treatment, nuclear SDMA by high content imaging. An excerpt:
The PRMT5 TE assay is a biomarker assay for identifying compounds that inhibit symmetric dimethylation of arginine (SDMA) of PRMT5 substrates. The following substrates have been reported for PRMT5: Histone H2A and H4 R3, Histone H3 R2, Histone H3 R8, spliceosome Sm proteins, ribosomal protein RPS10, p53, FEN1, nucleoplasmin, nucleolin, EGFR and EBNA. The assay will focus on detecting symmetrically dimethylated nuclear proteins using high content imaging technology. Detection of the expression of symmetrically dimethylated nuclear proteins is through a mixture of primary rabbit monoclonal antibodies to SDMA (CST 13222), which in turn recognized by an Alexafluor 488 dye-conjugated anti-rabbit IgG secondary antibody. The IN Cell Analyzer 2200 or Opera-Phenix measures nuclear Alexafluor 488 fluorescent dye intensity that is directly related to the level of expression of symmetrically dimethylated nuclear proteins at the single cell level. Nuclear AF488 dye intensities are compared to the mean value for DMSO treated cells (MIN) to report percent of inhibition for each compound-treated well.
In this assay, the cell potency (EC50) of each compound was determined from a ten point (1:3 serial dilution; top compound concentration of 10000 nM) titration curve using the following outlined procedure. Each well of a BD falcon collagen coated black/clear bottom 384-well plate was seeded with 4000 MCF-7 cells in 30 μl media and allowed to attach for 5 hours. Media is ATCC-formulated Eagle's Minimum Essential Medium, Catalog No. 30-2003. The following components were added to the base medium: 0.01 mg/mL human recombinant insulin; fetal bovine serum to a final concentration of 10%. Additional 30 μl of media containing 2× compounds were added to each well. Cells were treated for 3 days in 37° C. CO2 incubator. On day 3, cells were fixed with Cytofix, permeabilized with 0.4% Triton-X-100/Cytofix, and washed with D-PBS without Ca/Mg. Cells were blocked with Licor Odessey blocking reagent for 1 hour at room temperature, followed by incubation with anti-SDMA (1:1000) antibody at 4° C. overnight. 1° antibody was removed, followed by three washings with DPBS without Ca/Mg and 0.05% Tween20. Hoechst (5 μg/mL), Cell Mask deep stain (1:2000) and Alexa488-conjugated goat anti-rabbit IgG (2 μg/mL) was added for 1 hour at room temperature. A final washing step (three washes) was performed before sealing plate for imaging on In Cell Analyzer 2200 or Opera-Phenix. Images from analyzer were uploaded to Columbus for image analysis. IC50 values were determined by 4 parameters robust fit of percent fluorescence units vs. (Log10) compound concentrations.
Turning to `COc1cccc([C@H](O)[C@H]2O[C@@H](n3ccc4c(N)ncnc43)[C@H](O)[C@]2(C)O)c1` [Example 37, 7-[(5S)-5-C-(3-methoxyphenyl)-3-C-methyl-beta-D-ribofuranosyl]-7H-pyrrolo[2,3-d]pyrimidin-4-amine], the EC50 (in general, the concentration needed to bring the measured effect to its halfway point) was greater than 10000 nM.
Then `C[C@@]1(O)[C@@H]([C@H](O)c2ccnc(C(F)F)c2)O[C@@H](n2ccc3c(N)ncnc32)[C@@H]1O` [Example 78, 7-{(5R)-5-C-[2-(difluoromethyl)pyridin-4-yl]-3-C-methyl-beta-D-ribofuranosyl}-7H-pyrrolo[2,3-d]pyrimidin-4-amine], with 1420 nM; and `C[C@]1(O)[C@@H](O)[C@H](n2ccc3c(N)ncnc32)O[C@@H]1[C@](C)(O)c1cccc(C(F)F)c1` [Example 62, 7-{6-deoxy-5-C-[3-(difluoromethyl)phenyl]-3-C-methyl-alpha-L-talofuranosyl}-7H-pyrrolo[2,3-d]pyrimidin-4-amine], with 9.4 nM.
Then `C[C@@]1(O)[C@@H]([C@@H](O)c2ccc(Cl)c(Cl)c2)O[C@@H](n2ccc3c(N)ncnc32)[C@@H]1O` [Example 14, 7-[(5S)-5-C-(3,4-dichlorophenyl)-3-C-methyl-beta-D-ribofuranosyl]-7H-pyrrolo[2,3-d]pyrimidin-4-amine], with greater than 10000 nM.
Then `Cc1ccccc1[C@H](O)[C@H]1O[C@@H](n2ccc3c(N)ncnc32)[C@H](O)[C@]1(C)O` [Example 41, 7-[(5S)-3-C-methyl-5-C-(2-methylphenyl)-beta-D-ribofuranosyl]-7H-pyrrolo[2,3-d]pyrimidin-4-amine], with greater than 10000 nM; and `C[C@@]1(O)[C@@H]([C@H](O)c2cccc(F)c2F)O[C@@H](n2ccc3c(N)ncnc32)[C@@H]1O` [Example 44, 7-[(5R)-5-C-(2,3-difluorophenyl)-3-C-methyl-beta-D-ribofuranosyl]-7H-pyrrolo[2,3-d]pyrimidin-4-amine], with 1060 nM; and `C[C@@]1(O)[C@@H]([C@@H](O)c2cc(F)cc(C(F)F)c2F)O[C@@H](n2ccc3c(N)ncnc32)[C@@H]1O` [Example 7, (2R,3S,4R,5R)-5-(4-amino-7H-pyrrolo[2,3-d]pyrimidin-7-yl)-2-((S)-(3-(difluoromethyl)-2,5-difluorophenyl)(hydroxy)methyl)-3-methyltetrahydrofuran-3,4-diol], with 6550 nM.
On to `C[C@@]1(O)[C@@H]([C@H](O)c2cncc(C(F)F)c2)O[C@@H](n2ccc3c(N)ncnc32)[C@@H]1O` [Example 74, 7-{(5R)-5-C-[5-(difluoromethyl)pyridin-3-yl]-3-C-methyl-beta-D-ribofuranosyl}-7H-pyrrolo[2,3-d]pyrimidin-4-amine], for which the EC50 was found to be 2710 nM.
With `C[C@@]1(O)[C@@H]([C@@H](O)c2ccc(F)cc2Cl)O[C@@H](n2ccc3c(N)ncnc32)[C@@H]1O` [Example 49, 7-[(5S)-5-C-(2-chloro-4-fluorophenyl)-3-C-methyl-beta-D-ribofuranosyl]-7H-pyrrolo[2,3-d]pyrimidin-4-amine] the figure was greater than 10000 nM.
Then `COc1ccc([C@@H](O)[C@H]2O[C@@H](n3ccc4c(N)ncnc43)[C@H](O)[C@]2(C)O)cc1` [Example 32, 7-[(5R)-5-C-(4-methoxyphenyl)-3-C-methyl-beta-D-ribofuranosyl]-7H-pyrrolo[2,3-d]pyrimidin-4-amine], with 2740 nM; and `Cc1ccc([C@@H](O)[C@H]2O[C@@H](n3ccc4c(N)ncnc43)[C@H](O)[C@]2(C)O)cc1` [Example 30, 7-[(5R)-3-C-methyl-5-C-(4-methylphenyl)-beta-D-ribofuranosyl]-7H-pyrrolo[2,3-d]pyrimidin-4-amine], with 3170 nM.
With `C[C@@]1(O)[C@@H]([C@@H](O)c2ccc(Cl)cc2F)O[C@@H](n2ccc3c(N)ncnc32)[C@@H]1O` [Example 43, 7-[(5S)-5-C-(4-chloro-2-fluorophenyl)-3-C-methyl-beta-D-ribofuranosyl]-7H-pyrrolo[2,3-d]pyrimidin-4-amine] the figure was greater than 10000 nM.
In turn, `C[C@@]1(O)[C@@H]([C@@H](O)c2cc(C(F)F)ccn2)O[C@@H](n2ccc3c(N)ncnc32)[C@@H]1O` [Example 73, 7-{(5S)-5-C-[4-(difluoromethyl)pyridin-2-yl]-3-C-methyl-beta-D-ribofuranosyl}-7H-pyrrolo[2,3-d]pyrimidin-4-amine] registered an EC50 greater than 10000 nM.
For `C[C@@]1(O)[C@@H]([C@H](O)c2cc(F)cc(C(F)(F)F)c2)O[C@@H](n2ccc3c(N)ncnc32)[C@@H]1O` [Example 58, 7-{(5R)-5-C-[3-fluoro-5-(trifluoromethyl)phenyl]-3-C-methyl-beta-D-ribofuranosyl}-7H-pyrrolo[2,3-d]pyrimidin-4-amine], the 50% effective concentration (EC50) turned out to be 301 nM.
With `C[C@@]1(O)[C@@H]([C@H](O)c2cc(F)cc(C(F)F)c2)O[C@@H](n2ccc3c(N)ncnc32)[C@@H]1O` [Example 4, (2R,3S,4R,5R)-5-(4-amino-7H-pyrrolo[2,3-d]pyrimidin-7-yl)-2-((R)-(3-(difluoromethyl)-5-fluorophenyl)(hydroxy)methyl)-3-methyltetrahydrofuran-3,4-diol] the figure was 16 nM.
On to `C[C@]1(O)[C@@H](O)[C@H](n2ccc3c(N)ncnc32)O[C@@H]1[C@](C)(O)c1cc(C(F)F)c(F)c2c1CNCC2` [Example 10, (2R,3S,4R,5R)-5-(4-amino-7H-pyrrolo[2,3-d]pyrimidin-7-yl)-2-((R)-1-(6-(difluoromethyl)-5-fluoro-1,2,3,4-tetrahydroisoquinolin-8-yl)-1-hydroxyethyl)-3-methyltetrahydrofuran-3,4-diol], for which the EC50 is 5.6 nM.
On to `Cc1cccc([C@H](O)[C@H]2O[C@@H](n3ccc4c(N)ncnc43)[C@H](O)[C@]2(C)O)c1` [Example 39, 7-[(5S)-3-C-methyl-5-C-(3-methylphenyl)-beta-D-ribofuranosyl]-7H-pyrrolo[2,3-d]pyrimidin-4-amine], for which the EC50 is greater than 10000 nM.
With `C[C@@]1(O)[C@@H]([C@@H](O)c2ccccc2)O[C@@H](n2ccc3c(N)ncnc32)[C@@H]1O` [Example 12, 7-[(5S)-3-C-methyl-5-C-phenyl-beta-D-ribofuranosyl]-7H-pyrrolo[2,3-d]pyrimidin-4-amine] the figure was greater than 10000 nM; with `C[C@]1(O)[C@@H](O)[C@H](n2ccc3c(N)ncnc32)O[C@@H]1[C@@](C)(O)c1cccc2c1CNCC2` [Example 69, 7-[6-deoxy-3-C-methyl-5-C-(1,2,3,4-tetrahydroisoquinolin-8-yl)-beta-D-allofuranosyl]-7H-pyrrolo[2,3-d]pyrimidin-4-amine], 507 nM; with `C[C@@]1(O)[C@@H]([C@H](O)c2cc(C(F)F)c(F)c3c2CNCC3)O[C@@H](n2ccc3c(N)ncnc32)[C@@H]1O` [Example 8, (2R,3S,4R,5R)-5-(4-amino-7H-pyrrolo[2,3-d]pyrimidin-7-yl)-2-((R)-(6-(difluoromethyl)-5-fluoro-1,2,3,4-tetrahydroisoquinolin-8-yl)(hydroxy)methyl)-3-methyltetrahydrofuran-3,4-diol], 65 nM.
With `COc1ccc([C@H](O)[C@H]2O[C@@H](n3ccc4c(N)ncnc43)[C@H](O)[C@]2(C)O)cc1` [Example 33, 7-[(5S)-5-C-(4-methoxyphenyl)-3-C-methyl-beta-D-ribofuranosyl]-7H-pyrrolo[2,3-d]pyrimidin-4-amine] the figure was greater than 10000 nM.
